Laboratory results from publication PMC10692721, “Drug discovery for heart failure targeting myosin-binding protein C” (The Journal of Biological Chemistry, 2023).
Entries after “also recorded” stand apart in the source; their conditions may differ. *1 amine or outer side, *2 acyl side, *3 side chain or, on linkers, in order; H or OH if unused. Where a SMILES comes first, the peptide text is derived from it. Bridges are numbered along the chain shown (N, C = ends). [ ]: non-standard residue; d: D form. The star is where a group is joined. Orn(4R-OH,5R-OH) = O=C([C@H](C[C@@H](O)[C@@H](O)N[*:3])N[*:1])[*:2]; Tetradecanoyl(10R,12S-Me2) = CC[C@H](C)C[C@H](C)CCCCCCCCC(=O)*; hTyr(3S-OH,4S-OH) = N[C@H](C(=O)O)[C@H](O)[C@@H](O)c1ccc(O)cc1; Gln(3R-OH) = NC(=O)C[C@@H](O)[C@H](N)C(=O)O; Pro(3S-OH) = O=C(O)[C@H]1NCC[C@@H]1O; Hyp = O=C(O)[C@@H]1C[C@@H](O)CN1

Key:
[1] = tested on: PKA-phosphorylated TMR-cC0-C2 (cC0-C2#P); experiment: FLT-TMR concentration-response assay, PKA-phosphorylated cC0-C2; type: binding, human; conditions: 60 μM compound
How it was run: (§1)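 Hits tested at eight concentrations (0.5–100 μM) and read on a high-throughput fluorescence lifetime plate reader. Hill fits applied only under certain conditions.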

[2] = tested on: TMR-fC1-C2 (C1-C2 of fast skeletal MyBP-C); experiment: FLT-TMR concentration-response assay, fC1-C2; type: binding; conditions: 60 μM compound
How it was run: as §1

[3] = tested on: FMAL-actin/TMR-cC0-C2 interaction; experiment: FLT-FRET concentration-response assay, FMAL-actin plus TMR-cC0-C2; type: binding, human; conditions: unphosphorylated cC0-C2
How it was run: as §1

[4] = tested on: FMAL-actin/PKA-phosphorylated TMR-cC0-C2 interaction; experiment: FLT-FRET concentration-response assay, FMAL-actin plus PKA-phosphorylated TMR-cC0-C2; type: binding, human; conditions: phosphorylated cC0-C2
Method: Compounds identified as initial hits were further examined to determine the concentration–response curves for seven conditions ([1]): FMAL-actin alone identified actin-binding compounds that alter the FLT of FMAL-actin ([2]).
Fluorescence lifetime (FLT) measurements were acquired using a high-throughput FLT plate reader (Fluorescence Innovations, Inc) ([14], [27]), provided by Photonic Pharma LLC. […] The observed waveforms were analyzed as described previously ([15], [28]).
The primary hits were dissolved in DMSO to make a 10 mM stock solution, which was serially diluted in 96-well mother plates. Hits were screened at eight concentrations (0.5–100 μM). […] Compounds (1 μl) were transferred from the mother plates into 384-well plates using a Mosquito HV liquid handler (TTP Labtech Ltd, Hertfordshire, UK). The same procedure of dispensing as for the pilot screening was applied in the concentration-response assays. Concentration dependence of the FLT-FRET (E/EDMSO) or FLT-TMR (Δτ) change data was fit to a Hill equation only under certain conditions to help guide the eye (Fig. 4).

[5] = tested on: FMAL-actin/TMR-fC1-C2 interaction; experiment: FLT-FRET concentration-response assay, FMAL-actin plus TMR-fC1-C2; type: binding
How it was run: as §1

[6] = tested on: FMAL-actin plus TMR-cC0-C2; experiment: Selleck library HTS, 473 nm excitation (FLT of FMAL-actin with TMR-cC0-C2, FLT-FRET); type: binding, human
How it was run: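 Donor fluorescence lifetime was then recorded. Waveforms were fit to a single exponential, and ΔFLT was obtained after a moving-median plate-gradient correction (half-row window), rescaled by the median DMSO lifetime.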

TMR-cC0-C2 = experiment: Selleck library HTS, 532 nm excitation (FLT of TMR-cC0-C2 in presence of FMAL-actin); type: binding, human
[7] = tested on: rabbit fast skeletal (psoas) myofibrils; experiment: Skeletal myofibril ATPase assay; type: biochemical; conditions: 50 μM compound, pCa 8 to pCa 4
How it was run: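 Rabbit psoas myofibrils (0.01 mg/ml) in 50 mM MOPS, 100 mM KCl, 5 mM MgCl2, 1 mM EGTA, pH 7.0, preincubated 20 min at 23 °C with 50 μM compound; 2.1 mM ATP start. NADH-coupled ATPase rate at 340 nm over 30 min, across pCa 4.0–8.0; pCa50 from Hill fit, 1% DMSO control.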

[8] = robust z-score, hit threshold ±4, 30 μM compound

Compound: CC[C@H](C)C[C@H](C)CCCCCCCCC(=O)N[C@H]1C[C@@H](O)[C@@H](O)NC(=O)[C@@H]2[C@@H](O)CCN2C(=O)[C@H]([C@H](O)CC(N)=O)NC(=O)[C@H]([C@H](O)[C@@H](O)c2ccc(O)cc2)NC(=O)[C@@H]2C[C@@H](O)CN2C(=O)[C@H]([C@@H](C)O)NC1=O [Pneumocandin B0] ({Tetradecanoyl(10R,12S-Me2)}-[Orn(4R-OH,5R-OH)]T[Hyp][hTyr(3S-OH,4S-OH)][Gln(3R-OH)][Pro(3S-OH)]; lactam 1-C)
- cC0-C2#P FLT change (% change from DMSO, FLT of TMR-MyBP-C) [1]: 13.2%
- cC0-C2/fC1-C2 (ratio of FLT changes) [2]: 1.1
- fC1-C2 FLT change (% change from DMSO, FLT of TMR-MyBP-C) [2]: 11.4%
- effect on FLT-FRET / binding between FMAL-actin and TMR-cC0-C2 (in words) [3]: increased the binding
- effect on FLT-FRET / binding between FMAL-actin and PKA-phosphorylated TMR-cC0-C2 (in words) [4]: decreasing the binding
- effect on FLT-FRET / binding between FMAL-actin and TMR-fC1-C2 (in words) [5]: increased the binding
- increase in actin binding (fC1-C2-actin FRET) ([5]; skeletal MyBP-C): 24%
- 473-nm Δτ, Repeat 1 ([6]; initial screen, 30 μM compound): -0.050 ns
- 473-nm Δτ, Repeat 2 ([6]; initial screen, 30 μM compound): -0.053 ns
- 473-nm z-score (based on avg Δτ) [6, 8]: -2.83
- 532-nm Δτ, Repeat 1 (TMR-cC0-C2; initial screen, 30 μM compound): 0.179 ns
- 532-nm Δτ, Repeat 2 (TMR-cC0-C2; initial screen, 30 μM compound): 0.149 ns
- 532-nm z-score (based on avg Δτ) (TMR-cC0-C2; [8]): 10.04
- effect on skeletal MF ATPase activity (in words) [7]: inhibitory effect; also recorded: affected ATPase
